SMILES strings stand for the structures.

The values that follow come from patent US12662489B2 (Sitryx Therapeutics Limited, priority 2023, dated 2026).

For experiment [1], the target named is T1, MTHFD2 recombinant human enzyme (Homo sapiens, UniProt P13995).
T1 sequence (P13995 36-350): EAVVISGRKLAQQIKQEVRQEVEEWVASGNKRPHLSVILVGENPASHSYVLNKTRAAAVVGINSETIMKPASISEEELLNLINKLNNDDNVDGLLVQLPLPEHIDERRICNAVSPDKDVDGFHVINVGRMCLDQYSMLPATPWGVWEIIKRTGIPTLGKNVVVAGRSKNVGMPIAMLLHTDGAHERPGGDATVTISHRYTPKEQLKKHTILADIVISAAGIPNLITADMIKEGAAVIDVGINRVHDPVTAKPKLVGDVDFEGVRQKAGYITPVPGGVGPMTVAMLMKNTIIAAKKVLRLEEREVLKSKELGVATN
Put plainly: MTHFD2 inhibition assay (NAD(P)H-Glo luminescence). Conditions: for MTHFD1/MTHFD2 IC50 ratio: selectivity of MTHFD2 inhibition over MTHFD1, band.

Experiment [2] concerns the target T2, MTHFD1 recombinant human enzyme (Homo sapiens, UniProt P11586).
T2 sequence (P11586 2-291 limits assumed): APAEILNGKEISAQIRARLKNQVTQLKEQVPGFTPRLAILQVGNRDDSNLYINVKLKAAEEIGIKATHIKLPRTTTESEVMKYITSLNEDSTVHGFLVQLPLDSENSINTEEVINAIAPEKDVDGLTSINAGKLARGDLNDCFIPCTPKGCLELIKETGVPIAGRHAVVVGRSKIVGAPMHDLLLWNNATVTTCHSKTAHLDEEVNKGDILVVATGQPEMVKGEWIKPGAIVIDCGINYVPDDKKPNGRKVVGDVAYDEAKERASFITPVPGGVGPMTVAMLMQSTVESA
Put plainly: MTHFD1 inhibition assay (NAD(P)H-Glo luminescence). The conditions noted are these: MTHFD1 IC50, recombinant human enzyme 200 nM, NADP, band.

A word on the IC50: it is the concentration at which inhibition is half-maximal. Take `COC[C@H]1CN(c2cc(C)c3c4c(c(=O)oc3c2C)CN(C(=O)c2cc(N(C)C)c(C(=O)NS(=O)(=O)N3CCC[C@@H]3C(F)(F)F)cc2F)CC4)CCN1C` [Example 287, 2-(dimethylamino)-5-fluoro-4-(8-((R)-3-(methoxymethyl)-4-methylpiperazin-1-yl)-7,10-dimethyl-5-oxo-1,3,4,5-tetrahydro-2H-chromeno[3,4-c]pyridine-3-carbonyl)-N-(((R)-2-(trifluoromethyl)pyrrolidin-1-yl)sulfonyl)benzamide]: in experiment [1], the concentration for half-maximal inhibition (IC50) was 10 to 100 nM and the “MTHFD1/MTHFD2 IC50 ratio” value was “H (>9.0 to 30)”. Further, the IC50 in experiment [2] lay in the range of 100 to 1000 nM.
The corresponding values for `COC[C@H]1CN(c2cc(Cl)c3c4c(c(=O)oc3c2C)CN(C(=O)c2ccc(C(=O)NS(=O)(=O)N3CCC[C@@H]3COC)c(OC)c2)CC4)CCN1C` [Example 288, 4-(10-chloro-8-((R)-3-(methoxymethyl)-4-methylpiperazin-1-yl)-7-methyl-5-oxo-1,3,4,5-tetrahydro-2H-chromeno[3,4-c]pyridine-3-carbonyl)-2-methoxy-N-(((R)-2-(methoxymethyl)pyrrolidin-1-yl)sulfonyl)benzamide] are 10 to 100 nM, “J (>30)” and 1000 to 5000 nM.
The corresponding values for `COC[C@H]1CN(c2cc(C)c3c4c(c(=O)oc3c2C)CN(C(=O)c2cc(N(C)C)c(C(=O)NS(=O)(=O)N3CCC(OC)CC3)cc2F)CC4)CCN1C` [Example 289, (R)-2-(dimethylamino)-5-fluoro-4-(8-(3-(methoxymethyl)-4-methylpiperazin-1-yl)-7,10-dimethyl-5-oxo-1,3,4,5-tetrahydro-2H-chromeno[3,4-c]pyridine-3-carbonyl)-N-((4-methoxypiperidin-1-yl)sulfonyl)benzamide] are 10 to 100 nM, “J (>30)” and 100 to 1000 nM.
For the molecule `COC[C@H]1CN(c2cc(Cl)c3c4c(c(=O)oc3c2C)CN(C(=O)c2cc(N(C)C)c(C(=O)NS(=O)(=O)N3CCC[C@@H]3COC)cc2F)CC4)CCN1C` [Example 290, 4-(10-chloro-8-((R)-3-(methoxymethyl)-4-methylpiperazin-1-yl)-7-methyl-5-oxo-1,3,4,5-tetrahydro-2H-chromeno[3,4-c]pyridine-3-carbonyl)-2-(dimethylamino)-5-fluoro-N-(((R)-2-(methoxymethyl)pyrrolidin-1-yl)sulfonyl)benzamide], in experiment [1], the IC50 lay in the range of 10 to 100 nM and the “MTHFD1/MTHFD2 IC50 ratio” value is “J (>30)”. Besides, the IC50 in experiment [2] was in the range of 100 to 1000 nM.
Regarding `COC[C@H]1CN(c2cc(Cl)c3c4c(c(=O)oc3c2C)CN(C(=O)c2cc(N(C)C)c(C(=O)NS(=O)(=O)N3CCC(C(F)(F)F)CC3)cc2F)CC4)CCN1C` [Example 293, (R)-4-(10-chloro-8-(3-(methoxymethyl)-4-methylpiperazin-1-yl)-7-methyl-5-oxo-1,3,4,5-tetrahydro-2H-chromeno[3,4-c]pyridine-3-carbonyl)-2-(dimethylamino)-5-fluoro-N-((4-(trifluoromethyl)piperidin-1-yl)sulfonyl)benzamide], in experiment [1], the IC50 was in the range of 10 to 100 nM and the “MTHFD1/MTHFD2 IC50 ratio” value is “J (>30)”. Besides, the IC50 in experiment [2] is 100 to 1000 nM.
Consider `COC[C@H]1CN(c2cc(Cl)c3c4c(c(=O)oc3c2C)CN(C(=O)c2cc(N(C)C)c(C(=O)NS(=O)(=O)N3CCC[C@H]3C(F)(F)F)cc2F)CC4)CCN1C` [Example 295, 4-(10-chloro-8-((R)-3-(methoxymethyl)-4-methylpiperazin-1-yl)-7-methyl-5-oxo-1,3,4,5-tetrahydro-2H-chromeno[3,4-c]pyridine-3-carbonyl)-2-(dimethylamino)-5-fluoro-N-(((S)-2-(trifluoromethyl)pyrrolidin-1-yl)sulfonyl)benzamide], for which, in experiment [1], the IC50 was 10 to 100 nM and the “MTHFD1/MTHFD2 IC50 ratio” value is “J (>30)”. In addition, in experiment [2], the IC50 was in the range of 1000 to 5000 nM.
Regarding `COC[C@H]1CN(c2cc(C)c3c4c(c(=O)oc3c2C)CN(C(=O)c2cc(N(C)C)c(C(=O)NS(=O)(=O)N3CCC(C(F)(F)F)CC3)cc2F)CC4)CCN1C` [Example 296, (R)-2-(dimethylamino)-5-fluoro-4-(8-(3-(methoxymethyl)-4-methylpiperazin-1-yl)-7,10-dimethyl-5-oxo-1,3,4,5-tetrahydro-2H-chromeno[3,4-c]pyridine-3-carbonyl)-N-((4-(trifluoromethyl)piperidin-1-yl)sulfonyl)benzamide], the IC50 in experiment [1] lay within 10 to 100 nM; in experiment [2] it was 100 to 1000 nM.
In the case of `COC[C@H]1CN(c2cc(Cl)c3c4c(c(=O)oc3c2C)CN(C(=O)c2cc(OC)c(C(=O)NS(=O)(=O)N(C3CC3)C3CC3)cc2F)CC4)CCN1C` [Example 297, (R)-4-(10-chloro-8-(3-(methoxymethyl)-4-methylpiperazin-1-yl)-7-methyl-5-oxo-1,3,4,5-tetrahydro-2H-chromeno[3,4-c]pyridine-3-carbonyl)-N-(N,N-dicyclopropylsulfamoyl)-5-fluoro-2-methoxybenzamide], the half-maximal inhibitory concentration (IC50) is 10 to 100 nM in experiment [1] and 100 to 1000 nM in experiment [2]. In addition, the “MTHFD1/MTHFD2 IC50 ratio” value in experiment [1] was “H (>9.0 to 30)”.
Consider `CCOc1cc(C(=O)N2CCc3c(c(=O)oc4c(C)c(N5CCN(C)[C@@H](COC)C5)cc(Cl)c34)C2)c(F)cc1C(=O)NS(=O)(=O)N(C)C1CC1` [Example 298, (R)-4-(10-chloro-8-(3-(methoxymethyl)-4-methylpiperazin-1-yl)-7-methyl-5-oxo-1,3,4,5-tetrahydro-2H-chromeno[3,4-c]pyridine-3-carbonyl)-N-(N-cyclopropyl-N-methylsulfamoyl)-2-ethoxy-5-fluorobenzamide], for which, in experiment [1], the IC50 is 10 to 100 nM and the “MTHFD1/MTHFD2 IC50 ratio” value is on record as “G (^ 3 to 9.0)”. For the same molecule, the IC50 in experiment [2] lay within 100 to 1000 nM.
As to `CCOc1cc(C(=O)N2CCc3c(c(=O)oc4c(C)c(N5CCN(C)[C@@H](COC)C5)cc(Cl)c34)C2)c(F)cc1C(=O)NS(=O)(=O)C1(C)CC1` [Example 299, (R)-4-(10-chloro-8-(3-(methoxymethyl)-4-methylpiperazin-1-yl)-7-methyl-5-oxo-1,3,4,5-tetrahydro-2H-chromeno[3,4-c]pyridine-3-carbonyl)-2-ethoxy-5-fluoro-N-((1-methylcyclopropyl)sulfonyl)benzamide], the IC50 in experiment [1] was 10 to 100 nM; in experiment [2], 100 to 1000 nM. Moreover, the “MTHFD1/MTHFD2 IC50 ratio” value in experiment [1] was “H (>9.0 to 30)”.
In the case of `CCOc1cc(C(=O)N2CCc3c(c(=O)oc4c(C)c(N5CCN(C)[C@@H](COC)C5)cc(Cl)c34)C2)c(F)cc1C(=O)NS(=O)(=O)N1CC2(CCC2)C1` [Example 300, (R)-N-((2-azaspiro[3.3]heptan-2-yl)sulfonyl)-4-(10-chloro-8-(3-(methoxymethyl)-4-methylpiperazin-1-yl)-7-methyl-5-oxo-1,3,4,5-tetrahydro-2H-chromeno[3,4-c]pyridine-3-carbonyl)-2-ethoxy-5-fluorobenzamide], the IC50 was 10 to 100 nM in experiment [1] and 100 to 1000 nM in experiment [2].
As to `CCOc1cc(C(=O)N2CCc3c(c(=O)oc4c(C)c(N5CCN(C)[C@@H](COC)C5)cc(Cl)c34)C2)c(F)cc1C(=O)NS(=O)(=O)N1CC2CCC(C1)O2` [Example 301, N-((8-oxa-3-azabicyclo[3.2.1]octan-3-yl)sulfonyl)-4-(10-chloro-8-((R)-3-(methoxymethyl)-4-methylpiperazin-1-yl)-7-methyl-5-oxo-1,3,4,5-tetrahydro-2H-chromeno[3,4-c]pyridine-3-carbonyl)-2-ethoxy-5-fluorobenzamide], in experiment [1], the IC50 lay within 10 to 100 nM and the “MTHFD1/MTHFD2 IC50 ratio” value was “J (>30)”. Also, the IC50 in experiment [2] is 100 to 1000 nM.
As to `COC[C@H]1CN(c2cc(F)c3c4c(c(=O)oc3c2C)CN(C(=O)c2cc(OC)c(C(=O)NS(=O)(=O)N3C5CCC3CC5)cc2F)CC4)CCN1C` [Example 305, (R)-N-((7-azabicyclo[2.2.1]heptan-7-yl)sulfonyl)-5-fluoro-4-(10-fluoro-8-(3-(methoxymethyl)-4-methylpiperazin-1-yl)-7-methyl-5-oxo-1,3,4,5-tetrahydro-2H-chromeno[3,4-c]pyridine-3-carbonyl)-2-methoxybenzamide], in experiment [1], the half-maximal inhibitory concentration (IC50) lay in the range of 10 to 100 nM and the “MTHFD1/MTHFD2 IC50 ratio” value was “J (>30)”. The IC50 in experiment [2] lay within 1000 to 5000 nM.
The matching figures for `COC[C@H]1CN(c2cc(Cl)c3c4c(c(=O)oc3c2C)CN(C(=O)c2cc(OC3CC3)c(C(=O)NS(=O)(=O)N(C)C)cc2F)CC4)CCN1C` [Example 306, (R)-4-(10-chloro-8-(3-(methoxymethyl)-4-methylpiperazin-1-yl)-7-methyl-5-oxo-1,3,4,5-tetrahydro-2H-chromeno[3,4-c]pyridine-3-carbonyl)-2-cyclopropoxy-N-(N,N-dimethylsulfamoyl)-5-fluorobenzamide]: 10 to 100 nM, “J (>30)” and 100 to 1000 nM.
